From patent US11583568B2, “Methods for administering angiotensin II” (La Jolla Pharma, LLC, priority 2017, dated 2023)
Read-outs that look alike come from different tables or passages of the source.

What was measured:
[1] = cited from earlier work
[2] = system: patients suffering from hypotension; test: 28-day survival of hypotensive patients given angiotensin II or placebo, by baseline Ang I:Ang II ratio; format: in vivo, human
Description: The ratio of blood concentration of angiotensin I to blood concentration of angiotensin II in patients suffering from hypotension was determined and the patients were administered Angiotensin II or a placebo and their survival monitored for 28 days. In general, a low ratio of blood concentration of angiotensin I to blood concentration of angiotensin II (relative high ANG2 state) is protective across the patient population in multivariate analysis. When assessed by tertile, patients with a low ratio of blood concentration of angiotensin I to blood concentration of angiotensin II had better outcomes as assessed by a 28-day all-cause mortality as compared to high ratio of blood concentration of angiotensin I to blood concentration of angiotensin II (K-M survival curves, FIGS. 1 to 4). […] See also Table I and Table II.

CC[C@H](C)[C@H](NC(=O)[C@H](Cc1ccc(O)cc1)NC(=O)[C@@H](N)C(C)C)C(=O)N[C@@H](Cc1cnc[nH]1)C(=O)N1CCC[C@H]1C(=O)N[C@@H](Cc1ccccc1)C(=O)O [Angiotensin IV, Val-Tyr-Ile-His-Pro-Phe]
Activity relative to angiotensin II ([1]; in words): less activity than angiotensin II

Arg-Val-Tyr-Ile-His-Pro-Phe (RVYIHPF; printed: Arg-Val-Tyr-Ile-His-Pro-Phe) [Angiotensin III]
Activity relative to angiotensin II ([1]; of the activity of angiotensin II): approximately 40%

angiotensin II (DRVYIHPF; printed: Asp-Arg-Val-Tyr-Ile-His-Pro-Phe) [LJPC-501, text says patients were administered Angiotensin II or a placebo]
Mortality at Day 28, Estimate (95% CI) ([2]; Baseline Ang I:Ang II ratio <1.63, n = 70): 41.6% (31.0%-54.0%)
Mortality at Day 28, Estimate (95% CI) ([2]; Baseline Ang I:Ang II ratio ≥1.63, n = 72): 50.0% (39.1%-62.0%)
Survival of patients with elevated Ang I:Ang II ratio ([2]; Elevated ratio patients given angiotensin II, compared with patients with a lower ratio): survival becomes comparable to patients who display a lower angiotensin I to angiotensin II ratio
Treatment effect on 28-day all-cause mortality compared to control ([2]; Patients with the highest Ang I:Ang II ratio (relative low ANG2 state)): large treatment effect compared to control
HR for mortality at Day 28, within treatment group ([2]; Within treatment group, baseline Ang I:Ang II ratio <1.63 vs ≥1.63): 0.80
